Laboratory results published in PubChem BioAssay (NCI).
Where “and” joins values, the source holds several entries; their conditions need not be identical. Equal entries are not always repeated.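 Five concentrations, 48 hours, 96-well plates. The concentration for 50% growth inhibition is given as GI50. TGI marks complete inhibition of growth.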

Columns and labels:
Assay in all cases: NCI-60 cell line screen, 48 h
NCI/ADR-RES ovarian = system: NCI/ADR-RES ovarian
NCI-H23 lung = system: NCI-H23 lung
M14 melanoma = system: M14 melanoma
KM12 colon = system: KM12 colon
MDA-N = system: MDA-N
NCI-H460 lung = system: NCI-H460 lung
786-0 renal = system: 786-0 renal
TK-10 renal = system: TK-10 renal
HCT-15 colon = system: HCT-15 colon
T-47D breast = system: T-47D breast

In the case of O=C1c2c(Br)sc(Br)c2[C@H]2OC(=S)N[C@@H]12, the TGI (NCI/ADR-RES ovarian) is reported as 31.6 µM, the TGI (NCI-H23 lung) is reported as 15.1 µM and the TGI (M14 melanoma) is reported as 4.1 µM. For the same compound, the TGI (KM12 colon) was 38.8 µM, the TGI (MDA-N) was 16.9 µM and the TGI (NCI-H460 lung) was 34.2 µM. The TGI (786-0 renal) was 27 µM, the TGI (TK-10 renal) was 35 µM and the TGI (HCT-15 colon) was 3.76 µM. The TGI (T-47D breast) was 44.2 µM.
Compound CC(Br)CN(CC(C)Br)c1ccc2c(c1)Cc1ccccc1-2 (configuration not stated) has a TGI (NCI/ADR-RES ovarian) of 38.4 µM, a TGI (NCI-H23 lung) of 26.9 µM and a TGI (M14 melanoma) of 24.3 µM. It also gave a TGI (KM12 colon) of 31.4 µM, a TGI (MDA-N) of 30.7 µM and a TGI (NCI-H460 lung) of 9.23 µM. The TGI (786-0 renal) was 23.1 µM, the TGI (TK-10 renal) was 26.2 µM and the TGI (HCT-15 colon) was 27.7 µM. The TGI (T-47D breast) was 29.6 µM.
O=C1c2cccnc2C(=O)c2c1nc1ccccc1c2-c1ccc2c3c(nc4ccccc42)C(=O)c2cccnc2-c13 showed a TGI (NCI/ADR-RES ovarian) of 5.16 µM, a TGI (NCI-H23 lung) of 2.67 µM and a TGI (M14 melanoma) of 4.55 µM. It also gave a TGI (KM12 colon) of 12.5 µM, a TGI (MDA-N) of 8.82 µM and a TGI (NCI-H460 lung) of 3.97 µM. The TGI (786-0 renal) was 1.91 µM, the TGI (TK-10 renal) was 19.1 µM and the TGI (HCT-15 colon) was 1.76 µM. For the same compound, the TGI (T-47D breast) was 19.4 µM.
For CC(C)(C)[Si](C)(C)OC1CCOC1(O)c1ccccn1 (configuration not stated), the TGI (NCI/ADR-RES ovarian) was > 100 µM, the TGI (NCI-H23 lung) was > 100 µM and the TGI (M14 melanoma) was > 100 µM. For the same compound, the TGI (KM12 colon) was > 100 µM, the TGI (MDA-N) was > 100 µM and the TGI (NCI-H460 lung) was > 100 µM. The TGI (786-0 renal) was > 100 µM, the TGI (TK-10 renal) was > 100 µM and the TGI (HCT-15 colon) was > 100 µM. For the same compound, the TGI (T-47D breast) was > 100 µM.
For Brc1ccc(/C(N=N/C(=N\Sc2ccccc2)c2ccc(Br)cc2)=N/Sc2ccccc2)cc1, the TGI (NCI/ADR-RES ovarian) was > 100 µM, the TGI (NCI-H23 lung) was > 100 µM and the TGI (M14 melanoma) was > 100 µM. The TGI (KM12 colon) was > 100 µM, the TGI (MDA-N) was > 100 µM and the TGI (NCI-H460 lung) was > 100 µM. For the same compound, the TGI (786-0 renal) was > 100 µM, the TGI (TK-10 renal) was > 100 µM and the TGI (HCT-15 colon) was > 100 µM. For the same compound, the TGI (T-47D breast) was > 100 µM.
With O=C(O)CCSc1ncnc2nc[nH]c12 the TGI (NCI/ADR-RES ovarian) was > 100 µM, the TGI (NCI-H23 lung) was > 100 µM and the TGI (M14 melanoma) was > 100 µM. For the same compound, the TGI (KM12 colon) was > 100 µM, the TGI (MDA-N) was > 100 µM and the TGI (NCI-H460 lung) was > 100 µM. For the same compound, the TGI (786-0 renal) was > 100 µM, the TGI (TK-10 renal) was > 100 µM and the TGI (HCT-15 colon) was > 100 µM. For the same compound, the TGI (T-47D breast) was > 100 µM.
In the case of CC(=O)N=S(NC(=O)c1ccc(C)cc1)C(Cl)(Cl)Cl (configuration not stated), the TGI (NCI/ADR-RES ovarian) is reported as 49.1 µM, the TGI (NCI-H23 lung) is reported as 68.2 µM and the TGI (M14 melanoma) is reported as 31.8 µM. The TGI (KM12 colon) was > 100 µM, the TGI (MDA-N) was > 100 µM and the TGI (NCI-H460 lung) was > 100 µM. For the same compound, the TGI (786-0 renal) was 33.1 µM, the TGI (TK-10 renal) was > 100 µM and the TGI (HCT-15 colon) was > 100 µM. For the same compound, the TGI (T-47D breast) was > 100 µM.
For O=C1CCC(CCc2nc3ccccc3[nH]2)(c2ccccc2)C(=O)N1 (configuration not stated), the TGI (NCI/ADR-RES ovarian) was > 100 µM, the TGI (NCI-H23 lung) was > 100 µM and the TGI (M14 melanoma) was > 100 µM. For the same compound, the TGI (KM12 colon) was > 100 µM, the TGI (MDA-N) was > 100 µM and the TGI (NCI-H460 lung) was > 100 µM. The TGI (786-0 renal) was > 100 µM, the TGI (TK-10 renal) was > 100 µM and the TGI (HCT-15 colon) was > 100 µM. For the same compound, the TGI (T-47D breast) was > 100 µM.
COC(=O)[C@@H]1[C@H]2CC[C@]3(C)[C@@H](OC(C)=O)CC[C@H]3[C@@H]2CC[C@H]1C1(C)SCCS1 was tested, and the TGI (NCI/ADR-RES ovarian) was 57.1 µM, the TGI (NCI-H23 lung) was 86.7 µM and the TGI (M14 melanoma) was 44 µM. For the same compound, the TGI (KM12 colon) was 74.2 µM, the TGI (MDA-N) was 47.3 µM and the TGI (NCI-H460 lung) was 97.8 µM. For the same compound, the TGI (786-0 renal) was 62.5 µM, the TGI (TK-10 renal) was > 100 µM and the TGI (HCT-15 colon) was > 100 µM. The TGI (T-47D breast) was 56.8 µM.
For O=C(CCl)Nc1ccc(C(=O)N/N=C/c2ccc(Cl)cc2)cc1, the GI50 (NCI/ADR-RES ovarian) was 1.5 µM, the TGI (NCI/ADR-RES ovarian) was 8 µM and 3.38 µM and the GI50 (NCI-H23 lung) was 1.62 µM. The TGI (NCI-H23 lung) was 3.19 µM and 6.87 µM, the GI50 (M14 melanoma) was 1.89 µM and the TGI (M14 melanoma) was 3.42 µM and 18.3 µM. The GI50 (KM12 colon) was 1.84 µM, the TGI (KM12 colon) was 3.84 µM and 2.74 µM and the GI50 (MDA-N) was 11 µM. The TGI (MDA-N) was 3.69 µM and 24.3 µM, the TGI (NCI-H460 lung) was 3.84 µM and 4.23 µM and the TGI (786-0 renal) was 3.09 µM and 3.12 µM. For the same compound, the GI50 (TK-10 renal) was 1.83 µM, the TGI (TK-10 renal) was 3.91 µM and 29.5 µM and the GI50 (HCT-15 colon) was 1.48 µM. For the same compound, the TGI (HCT-15 colon) was 3.74 µM and 9.73 µM and the GI50 (T-47D breast) was 0.195 µM.
In the case of CC1=[N+]([O-])C2(CCCC2)N(O)C1(C)C, the TGI (NCI/ADR-RES ovarian) is reported as > 100 µM, the TGI (NCI-H23 lung) is reported as > 100 µM and the TGI (M14 melanoma) is reported as > 100 µM. The TGI (KM12 colon) was > 100 µM, the TGI (MDA-N) was > 100 µM and the TGI (NCI-H460 lung) was > 100 µM. For the same compound, the TGI (786-0 renal) was > 100 µM, the TGI (TK-10 renal) was > 100 µM and the TGI (HCT-15 colon) was > 100 µM. For the same compound, the TGI (T-47D breast) was > 100 µM.
With COc1cc2c3cc1Oc1cc(ccc1O)C[C@@H]1c4c(cc(OC)c(O)c4Oc4ccc(cc4)C[C@@H]3[N+](C)(C)CC2)CC[N+]1(C)C the TGI (NCI/ADR-RES ovarian) was > 100 µM, the TGI (NCI-H23 lung) was > 100 µM and the TGI (M14 melanoma) was 30.4 µM. The TGI (KM12 colon) was > 100 µM, the TGI (MDA-N) was > 100 µM and the TGI (NCI-H460 lung) was > 100 µM. The TGI (786-0 renal) was > 100 µM, the TGI (TK-10 renal) was > 100 µM and the TGI (HCT-15 colon) was > 100 µM. For the same compound, the TGI (T-47D breast) was 71.2 µM.
For CC1CCc2sc3[nH]c(=S)n(C)c(=O)c3c2C1 (configuration not stated), the TGI (NCI/ADR-RES ovarian) was > 100 µM, the TGI (NCI-H23 lung) was > 100 µM and the TGI (M14 melanoma) was 99.6 µM. The TGI (KM12 colon) was > 100 µM, the TGI (MDA-N) was > 100 µM and the TGI (NCI-H460 lung) was > 100 µM. For the same compound, the TGI (786-0 renal) was > 100 µM, the TGI (TK-10 renal) was > 100 µM and the TGI (HCT-15 colon) was > 100 µM. The TGI (T-47D breast) was > 100 µM.
With Nc1cc2nc(-c3ccccc3)cn2cn1 the TGI (NCI/ADR-RES ovarian) was > 100 µM, the TGI (NCI-H23 lung) was > 100 µM and the TGI (M14 melanoma) was > 100 µM. For the same compound, the TGI (KM12 colon) was > 100 µM, the TGI (MDA-N) was > 100 µM and the TGI (NCI-H460 lung) was > 100 µM. The TGI (786-0 renal) was > 100 µM, the TGI (TK-10 renal) was > 100 µM and the TGI (HCT-15 colon) was > 100 µM. The TGI (T-47D breast) was > 100 µM.
In the case of CC12CCC(=O)[C@@]1(C)CCCC2=O (some centres not stated), the TGI (NCI/ADR-RES ovarian) is reported as > 100 µM, the TGI (NCI-H23 lung) is reported as > 100 µM and the TGI (M14 melanoma) is reported as > 100 µM. The TGI (KM12 colon) was > 100 µM, the TGI (MDA-N) was > 100 µM and the TGI (NCI-H460 lung) was > 100 µM. For the same compound, the TGI (786-0 renal) was > 100 µM, the TGI (TK-10 renal) was > 100 µM and the TGI (HCT-15 colon) was > 100 µM. The TGI (T-47D breast) was > 100 µM.
For C=CCN(c1cc(OC)c2[nH]c(C(=O)O)c(C)c2c1[N+](=O)[O-])S(C)(=O)=O, the TGI (NCI/ADR-RES ovarian) was > 100 µM, the TGI (NCI-H23 lung) was > 100 µM and the TGI (M14 melanoma) was > 100 µM. The TGI (KM12 colon) was > 100 µM, the TGI (MDA-N) was > 100 µM and the TGI (NCI-H460 lung) was > 100 µM. For the same compound, the TGI (786-0 renal) was > 100 µM, the TGI (TK-10 renal) was > 100 µM and the TGI (HCT-15 colon) was > 100 µM. For the same compound, the TGI (T-47D breast) was > 100 µM.
O=C1CCCC2=C1CC1=C(CCCC1=O)N2c1ccc(-c2ccccc2)cc1 was tested, and the TGI (NCI/ADR-RES ovarian) was > 100 µM, the TGI (NCI-H23 lung) was > 100 µM and the TGI (M14 melanoma) was > 100 µM. For the same compound, the TGI (KM12 colon) was > 100 µM, the TGI (MDA-N) was > 100 µM and the TGI (NCI-H460 lung) was > 100 µM. The TGI (786-0 renal) was > 100 µM, the TGI (TK-10 renal) was > 100 µM and the TGI (HCT-15 colon) was > 100 µM. For the same compound, the TGI (T-47D breast) was > 100 µM.
O=C(O[C@@H](/C=C/c1ccccc1)P1(=O)N(Cc2ccccc2)[C@@H]2CCCC[C@H]2N1Cc1ccccc1)c1ccccc1 was tested, and the TGI (NCI/ADR-RES ovarian) was > 100 µM, the TGI (NCI-H23 lung) was 9.22 µM and the TGI (M14 melanoma) was > 100 µM. For the same compound, the TGI (KM12 colon) was 15.5 µM, the TGI (MDA-N) was > 100 µM and the TGI (NCI-H460 lung) was > 100 µM. The TGI (786-0 renal) was > 100 µM, the TGI (TK-10 renal) was > 100 µM and the TGI (HCT-15 colon) was > 100 µM. For the same compound, the TGI (T-47D breast) was 3.41 µM.
